The values below are quoted from earlier work in publication PMC10459069, “Comparative Serum and Brain Pharmacokinetics of Quercetin after Oral and Nasal Administration to Rats as Lyophilized Complexes with β-Cyclodextrin Derivatives and Their Blends with Mannitol/Lecithin Microparticles” (Pharmaceutics, 2023).

For series [1] the following is noted: reference not given.
The conditions of series [2]: rats.
Details of series [3]: method as in PMID 19720149. Conditions: mice, 6-week treatment with Que-enriched diets (2 mg/g diet).

As to `OC[C@@H](O)[C@@H](O)[C@H](O)[C@H](O)CO` [mannitol, Mannitol], the logP in series [1] is −3.4.
With `O=c1c(O)c(-c2ccc(O)c(O)c2)oc2cc(O)cc(O)c12` [Que, Quercetin], the Cmax/dose ratio in series [2] (intragastric administration of 100 mg/kg of pure Que, ref Yang et al. (2016) 46) was 0.03. Moreover, the “levels in the brain” value in series [2] (single oral administration of Que) is reported as “did not reveal measurable levels”. In addition, the brain levels in series [3] was 0.085 µg/g.
